In ChEMBL document CHEMBL1156829 (Proc Natl Acad Sci U S A, 2008):

Experiments:
[1] = test system: Plasmodium falciparum; assay: NOVARTIS: Inhibition of Plasmodium falciparum 3D7 (drug-susceptible) proliferation in erythrocyte-based infection assay; format: functional, organism-based; details: Plasmodium falciparum, 3D7
[2] = test system: Plasmodium falciparum; assay: NOVARTIS: Inhibition of Plasmodium falciparum W2 (drug-resistant) proliferation in erythrocyte-based infection assay; format: functional, organism-based; details: Plasmodium falciparum, W2; read-out: EC50
[3] = NOVARTIS: Cytotoxicity against human hepatocellular carcinoma cell line (Huh7); format: toxicity, cell-based, Huh-7; details: Huh7 cells (hepatocellular carcinoma cell line)

| SMILES | EC50 [1] | EC50 [2] | CC50 [3] |
| --- | --- | --- | --- |
| COc1ccc(OC)c(/C=C/C(=O)Nc2ccc3nc(N4CCN(C)CC4)cc(C)c3c2)c1 | > 1250 nM | > 873 nM | > 10000 nM |
| CCc1ccc2c(c1)C1(NN=C(c3ccc(C)cc3)S1)C(=O)N2 (configuration not stated) | 1490 nM | 2100 nM | 23800 nM |
| Oc1ccc(Nc2ccnc3cc(Cl)ccc23)cc1 | 3370 nM | 3520 nM | 39700 nM |
| Cc1ccc(C(=O)N(CCc2ccccc2)C(C)c2nc3ccccc3c(=O)n2-c2cccc(Cl)c2C)cc1[N+](=O)[O-] (configuration not stated) | > 1620 nM | 887 nM | > 10000 nM |
| CCN(CC)C(CN1CCN(CC(C)C(=O)c2ccc(O)cc2)CC1)c1ccc(F)cc1 (configuration not stated) | 1950 nM | 4310 nM | 49000 nM |
| CCc1ccc(-n2c(C(CC)N(CCc3ccc(OC)c(OC)c3)C(=O)C(CC)c3ccccc3)nc3ccccc3c2=O)cc1 (configuration not stated) | > 1250 nM | > 867 nM | > 10000 nM |
| COc1ccc(CCn2c(SCC(=O)N3CCN(c4ccccc4OC)CC3)nc3ccccc3c2=O)cc1OC | > 1250 nM | > 864 nM | > 10000 nM |
| NCCCCCCNC(=S)Nc1ccccc1 | > 1410 nM | > 859 nM | > 10000 nM |
| COc1cc(C=NNC(=O)Cc2nnc(N)s2)ccc1O | > 1250 nM | > 1120 nM | > 12700 nM |
| CC1CCCCN1CCCNc1ncc(C(=O)NCc2ccccc2)c(NCCc2ccccc2)n1 (configuration not stated) | 247 nM | > 878 nM | > 10000 nM |
| Cc1ccc(-c2nc3cc(NC(=O)c4ccc([N+](=O)[O-])o4)ccc3o2)cc1Br | 6920 nM | 6490 nM | 74000 nM |
| CCOC(=O)c1c(NC(=O)COc2ccccc2[N+](=O)[O-])sc(C(C)=O)c1C | > 1250 nM | > 853 nM | > 10000 nM |
| O=C(NCC1CCCO1)c1ccc([N+](=O)[O-])cc1Cl (configuration not stated) | > 1120 nM | > 877 nM | > 10000 nM |
| CCc1ccc(C(=O)N(C)CCCNc2ccnc3cc(Cl)ccc23)cc1 | 337 nM | 250 nM | 2860 nM |
| CCCCN1C(=O)/C(=C/N(C(=O)CC)c2ccccc2)SC1=S | > 699 nM | > 853 nM | > 10000 nM |
| CN(C)CCNC(=O)c1ccc(-c2cccc3c2sc2ccccc23)nc1N1CCN(CCO)CC1 | 388 nM | 452 nM | 5320 nM |
| Cc1cc(-c2cncnc2C2CCN(C(=O)c3cc(C(C)C)n[nH]3)CC2)on1 | > 1250 nM | > 849 nM | > 10000 nM |
| O=C(c1cccs1)N(Cc1cccs1)c1ccc([N+](=O)[O-])cc1 | 677 nM | 888 nM | > 10000 nM |
| COc1ccccc1N1CCN(c2ccc(NC(=O)c3ccc(Br)cc3)cc2C(=O)NCCCN(C)C)CC1 | > 1250 nM | 117 nM | 1340 nM |
| CC(C)(C)CC(=O)N1CCC[C@@H]2CN(C(=O)CCOc3ccccc3)CC[C@@H]21 | > 1250 nM | > 874 nM | > 10000 nM |
| COc1ccc(CNC2CCN(CCN3CCCCC3)C(c3ccc(OCc4ccccc4)cc3)C2)cc1OC (configuration not stated) | 662 nM | 447 nM | 5060 nM |
| CC(NCCN1CCNCC1)c1cc(C(C)(C)C)cc2c1CCC2(C)C (configuration not stated) | 598 nM | 586 nM | 6720 nM |
| O=C(O)CCCCCNc1ncnc2sc3c(c12)CCCC3 | > 1250 nM | 869 nM | > 10000 nM |
| COc1cc(Br)c(CCNC(=O)Cc2cc(OC)c(OC)cc2Br)cc1OC | > 8770 nM | > 8680 nM | > 100000 nM |
| COc1ccc(/C=C/c2ccc3ccccc3[n+]2C)cc1OC | 872 nM | 867 nM | > 10000 nM |
| CC1=NOC(=O)/C1=C/c1ccc(-c2ccc([N+](=O)[O-])cc2)o1 | > 1250 nM | > 865 nM | > 10000 nM |
| CCNc1ncnc2sc(C(=O)NCc3csc(C)n3)c(C)c12 | > 12500 nM | > 8590 nM | > 100000 nM |

| SMILES | EC50 [1] | EC50 [2] | CC50 [3] |
| --- | --- | --- | --- |
| CC(C)CNc1nc(NCCCN2CCCCC2C)ncc1C(=O)NCc1ccccc1 (configuration not stated) | 236 nM | 859 nM | > 10000 nM |
| O=C1Nc2ccccc2C1=Nc1ccccc1NS(=O)(=O)c1ccc2ccccc2c1 | > 1250 nM | > 857 nM | > 10000 nM |
| CC(c1nc2ccc(Cl)cc2c(=O)n1C)N1CCN(C(=O)C(C)(C)C)CC1 (configuration not stated) | 1470 nM | 860 nM | > 10000 nM |
| O=C(NCC1CCCO1)c1cc(S(=O)(=O)N2CCCCC2)c[nH]1 (configuration not stated) | > 1250 nM | > 860 nM | > 10000 nM |
| CCOC(=O)c1ccc(N2CCN(c3ccc(F)cc3)CC2)c(NC(=O)Nc2ccccc2)c1 | > 1250 nM | > 860 nM | > 10000 nM |
| O=[N+]([O-])c1ccc(Nc2nc(NN=Cc3ccccc3I)nc(Nc3ccccc3)n2)cc1 | 846 nM | 2820 nM | 32800 nM |
| Fc1ccc(CNc2ccnc3cc(Cl)ccc23)cc1 | 808 nM | > 881 nM | > 10000 nM |
| CCOc1nc2c(c(=O)n(C)c(=O)n2C)n1Cc1cccc(Br)c1 | > 1620 nM | > 885 nM | > 10000 nM |
| C=CCc1cc([N+](=O)[O-])cc2c1OC1(C=C2)N(c2ccccc2)c2ccccc2C1(C)C (configuration not stated) | 396 nM | 885 nM | > 10000 nM |
| COc1cc(C)c(CCNCCCCCCNCCc2cc(OC)c(OC)cc2C)cc1OC | 230 nM | > 880 nM | > 10000 nM |
| CC[C@H]1CN2CC[C@H]1C[C@H]2[C@H](O)c1ccnc2ccccc12 | 183 nM | 696 nM | > 7910 nM |
| CC(C)N1CCc2c(sc(NC(=O)C(C)(C)C)c2C(N)=O)C1 | 1040 nM | 6260 nM | 71200 nM |
| O=C1C(=Cc2cc([N+](=O)[O-])cc(Br)c2O)C(=O)c2ccccc21 | > 1250 nM | > 877 nM | > 10000 nM |
| COc1cc(NC(C)CCCN(Cc2ccc(Cl)cc2)C(=O)C(C)C)c2ncccc2c1 (configuration not stated) | 1680 nM | 1120 nM | 13200 nM |
| COc1ccc(-c2nnc(NC(=O)CCN(CCc3ccc(OC)c(OC)c3)C(=O)c3cccc4ccccc34)s2)cc1 | 934 nM | > 1200 nM | > 13600 nM |
| CN1CCN(C(=S)NC(=O)/C=C/c2ccc(F)cc2)CC1 | > 1250 nM | > 874 nM | > 10000 nM |
| COC(=O)c1c(-c2ccccc2Cl)csc1N | > 1250 nM | > 854 nM | > 10000 nM |
| CC1C(Br)C(=O)C(Br)C(C)C12CCCC2 (configuration not stated) | > 1250 nM | > 871 nM | > 10000 nM |
| C=CCn1c2cc(C)sc2c2cnn(CC(=O)N3CC(C)CC(C)C3)c(=O)c21 (configuration not stated) | > 1250 nM | > 857 nM | > 10000 nM |
| Cc1nn(C)cc1-c1nc2cnccn2c1NCC1CCCO1 (configuration not stated) | > 1250 nM | > 876 nM | > 10000 nM |
| COc1ccccc1CCNCc1cc(-c2ccc(F)cc2)ccc1O | 1050 nM | 869 nM | > 10000 nM |
| CCC1=NN2C(=N)/C(=C/c3cn(CCOc4ccccc4C(C)CC)c4ccccc34)C(=O)N=C2S1 (configuration not stated) | > 1250 nM | > 865 nM | > 10000 nM |
| c1ccc(N=Nc2nnc(Nc3ccccc3)s2)cc1 | 957 nM | 884 nM | > 10000 nM |
| CCC(NC1CCCCC1)c1nc2ccccc2c(=O)n1C (configuration not stated) | 1110 nM | 888 nM | > 10000 nM |
| COc1cc(NC(C)CCCN(Cc2ccccc2OC)C(=O)c2cccc(Br)c2)c2ncccc2c1 (configuration not stated) | > 948 nM | 563 nM | > 6430 nM |
| CCOC(=O)CSc1nc2c(sc(=S)n2-c2ccc(Cl)c(C)c2)c(=O)n1-c1ccccc1OC | > 1250 nM | > 884 nM | > 10000 nM |
| CCN(CC)c1nc(S)nc(NC(C)(C)C)n1 | > 12500 nM | > 8810 nM | > 100000 nM |
